Assays:
human 5-HT3A receptor = molecular target: T1, human 5-HT3A receptor (Homo sapiens, UniProt P46098); assay: Radioligand binding assay on 5-HT3A human receptors: determination of receptor subtype selectivity; settings: [3H]-GR65630 at 0.50 nM for 5-HT3A
T1 construct: host or cells: HEK-293
T1 sequence (P46098 24-478): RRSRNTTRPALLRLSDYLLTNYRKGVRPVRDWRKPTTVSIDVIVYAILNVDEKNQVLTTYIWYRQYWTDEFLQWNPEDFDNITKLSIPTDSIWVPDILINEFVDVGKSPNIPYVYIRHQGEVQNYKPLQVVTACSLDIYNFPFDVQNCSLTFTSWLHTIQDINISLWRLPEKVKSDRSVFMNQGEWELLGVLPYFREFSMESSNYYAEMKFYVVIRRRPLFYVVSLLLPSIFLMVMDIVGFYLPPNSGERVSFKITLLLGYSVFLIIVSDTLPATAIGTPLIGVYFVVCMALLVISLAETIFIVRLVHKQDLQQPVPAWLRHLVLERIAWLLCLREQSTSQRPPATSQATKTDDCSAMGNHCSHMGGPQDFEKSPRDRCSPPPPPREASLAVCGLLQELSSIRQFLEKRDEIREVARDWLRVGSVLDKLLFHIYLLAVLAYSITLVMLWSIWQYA
Protocol: Assay 2: Radioligand Binding Assay on 5-HT3A Human Receptors: Determination of Receptor Subtype Selectivity
a. Membrane Preparation 5-HT3A
HEK-293 (human embryonic kidney) cells stably-transfected with human 5-HT3A receptor cDNA were obtained from Dr. Michael Bruess (University of Bonn, […]) (Bmax=˜[…] protein, as determined using [^3H]-GR65630 membrane radioligand binding assay). […]
Radioligand binding assays were performed in 96-well polypropylene assay plates in a total assay volume of 200 μL containing 1.5-2 μg membrane protein in 50 mM HEPES pH 7.4, containing 0.025% BSA assay buffer. […] Non-specific binding was determined in the presence of 10 μM unlabeled MDL72222. […] Filter plates were washed three times with filtration buffer (ice-cold 50 mM HEPES, pH7.4) to remove unbound radioactivity. Plates were dried, 35 μL Microscint-20 liquid scintillation fluid (Packard BioScience Co., Meriden, Conn.) was added to each well and plates were counted in a Packard Topcount liquid scintillation counter (Packard BioScience Co., Meriden, Conn.).
Binding data were analyzed using the non-linear regression procedure described above to determine Ki values. The BOTTOM (curve minimum) was fixed to the value for nonspecific binding, as determined in the presence of 10 μM MDL72222. The quantity [L] in the Cheng-Prusoff equation was defined as the concentration [^3H]-GR65630. […]

[1] = Pharmacokinetic study in the rat; format: in vivo; settings: male Sprague-Dawley rats
Protocol: Assay 6: Pharmacokinetic Study in the Rat
Aqueous solution formulations of test compounds were prepared in 0.1% lactic acid at a pH of between about 5 and about 6. Male Sprague-Dawley rats (CD strain, Charles River Laboratories, Wilmington, Mass.) were dosed with test compounds via intravenous administration (IV) at a dose of 2.5 mg/kg or by oral gavage (PO) at a dose of 5 mg/kg. The dosing volume was 1 mL/kg for IV and 2 mL/kg for PO administration. Serial blood samples were collected from animals pre-dose, and at 2 (IV only), 5, 15, and 30 min, and at 1, 2, 4, 8, and 24 hours post-dose. Concentrations of test compounds in blood plasma were determined by liquid chromatography-mass spectrometry analysis (LC-MS/MS) (MDS SCIEX, API 4000, Applied Biosystems, Foster City, Calif.) with a lower limit of quantitation of 1 ng/mL.
Standard pharmacokinetic parameters were assessed by non-compartmental analysis (Model 201 for IV and Model 200 for PO) using WinNonlin (Version 4.0.1, Pharsight, Mountain View, Calif.). The maximum in the curve of test compound concentration in blood plasma vs. time is denoted Cmax. The area under the concentration vs. time curve from the time of dosing to the last measurable concentration (AUC(O-t)) was calculated by the linear trapezoidal rule. Oral bioavailability (F(%)), i.e. the dose-normalized ratio of AUC(O-t) for PO administration to AUC(O-t) for IV administration, can be calculated as: F(%)=AUCPO/AUCIV×DoseIV/DosePO×100%
The compounds of the invention that were tested in this assay had Cmax values between about 0.15 to about 0.35 μg/mL and AUC(0−t) values between about 0.5 to about 1.1 μg·hr/mL.

[2] = blood plasma, dosing IV 2.5 mg/kg or PO 5 mg/kg

## CC(C)n1c(=O)n(C(=O)N[C@H]2C[C@H]3CC[C@@H](C2)N3CCCOC(=O)N2CCN(C(=O)C3CCCO3)CC2)c2ccccc21 (stereo partly drawn) [Example 1, 4-(tetrahydrofuran-2-carbonyl)piperazine-1-carboxylic acid 3-{(1S,3R,5R)-3-[(3-isopropyl-2-oxo-2,3-dihydrobenzoimidazole-1-carbonyl)amino]-8-aza-bicyclo[3.2.1]oct-8-yl}propyl ester]
Human 5-HT3A receptor
  5-HT4/5-HT3 receptor subtype selectivity, ratio Ki(5-HT3A)/Ki(5-HT4(c)): 160
[1]; [2]
  AUC(0-t): 970 ng·h/mL
  Cmax: 320 ng/mL
[1]; plasma, PO 5 mg/kg vs IV 2.5 mg/kg, dose-normalized AUC ratio, read-out: oral bioavailability F(%)
  bioavailability: 55%

From patent US7851467B2, “Carbamate compounds as 5-HT4 receptor agonists” (Theravance, Inc., priority 2005, dated 2010)
